Experimental data: article PMC6886798, “Expression of myeloid Src-family kinases is associated with poor prognosis in AML and influences Flt3-ITD kinase inhibitor acquired resistance” (PLoS ONE, 2019)

Tests used:
Assay in all cases: KINOMEscan
Type in all cases: binding
Conditions in all cases: 1.0 µM
EPHA3 = target: T1, EPHA3 (Homo sapiens, UniProt P29320)
T1 construct: purchased Eurofins/DiscoverX KINOMEscan scanMAX
Protocol: (§1) Kinase retention to the immobilized ligand is then measured using quantitative real-time PCR for each kinase-specific DNA barcode.

SRPK1 = target: T2, SRPK1 (Homo sapiens, UniProt Q96SB4)
T2 construct: purchased Eurofins/DiscoverX KINOMEscan scanMAX
Protocol: as §1

[1] = target: T3, RSK2(Kin.Dom.2-C-terminal) (Homo sapiens, UniProt P51812)
T3 construct: RSK2(Kin.Dom.2-C-terminal); purchased Eurofins/DiscoverX KINOMEscan scanMAX
Protocol: as §1

DYRK1A = target: T4, DYRK1A (Homo sapiens, UniProt Q13627)
T4 construct: purchased Eurofins/DiscoverX KINOMEscan scanMAX
Protocol: as §1

TRKC = target: T5, TRKC (Homo sapiens, UniProt Q16288)
T5 construct: DNA tag (qPCR barcode); purchased Eurofins/DiscoverX KINOMEscan scanMAX
Protocol: as §1

MINK = target: T6, MINK (Homo sapiens, UniProt Q8N4C8)
T6 construct: purchased Eurofins/DiscoverX KINOMEscan scanMAX
Protocol: as §1

FER = target: T7, FER (Homo sapiens, UniProt P16591)
T7 construct: purchased Eurofins/DiscoverX KINOMEscan scanMAX
T7 sequence (P16591 whole entry): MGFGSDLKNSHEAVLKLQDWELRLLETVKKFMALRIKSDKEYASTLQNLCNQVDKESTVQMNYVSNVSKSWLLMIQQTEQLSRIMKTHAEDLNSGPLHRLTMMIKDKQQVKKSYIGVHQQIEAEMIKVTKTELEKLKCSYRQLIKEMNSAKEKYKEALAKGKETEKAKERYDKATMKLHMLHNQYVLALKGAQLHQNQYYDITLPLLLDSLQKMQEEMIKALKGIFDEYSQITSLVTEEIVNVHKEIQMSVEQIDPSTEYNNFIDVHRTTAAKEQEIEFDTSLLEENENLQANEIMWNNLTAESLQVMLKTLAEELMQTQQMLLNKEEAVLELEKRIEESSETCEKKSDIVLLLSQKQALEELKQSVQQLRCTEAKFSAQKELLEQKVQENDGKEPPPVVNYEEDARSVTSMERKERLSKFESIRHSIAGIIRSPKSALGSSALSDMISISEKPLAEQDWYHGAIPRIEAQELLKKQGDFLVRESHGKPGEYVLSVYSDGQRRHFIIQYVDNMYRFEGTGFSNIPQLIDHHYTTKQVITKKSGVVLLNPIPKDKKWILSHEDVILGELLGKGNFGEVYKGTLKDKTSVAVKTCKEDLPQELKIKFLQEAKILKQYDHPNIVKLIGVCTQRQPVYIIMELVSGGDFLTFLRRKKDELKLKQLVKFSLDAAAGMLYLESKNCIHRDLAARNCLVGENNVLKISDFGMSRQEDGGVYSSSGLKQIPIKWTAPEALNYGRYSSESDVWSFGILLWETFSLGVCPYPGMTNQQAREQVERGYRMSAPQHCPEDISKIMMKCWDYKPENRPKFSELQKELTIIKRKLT
Protocol: as §1

[2] = target: T8, ABL1(T315I)-phosphorylated (Homo sapiens, UniProt P00519, T315I)
T8 construct: purchased Eurofins/DiscoverX KINOMEscan scanMAX
Protocol: as §1

IGF1R = target: T9, IGF1R (Homo sapiens, UniProt P08069)
T9 construct: purchased Eurofins/DiscoverX KINOMEscan scanMAX
Protocol: as §1

RIOK3 = target: T10, RIOK3 (Homo sapiens, UniProt O14730)
T10 construct: purchased Eurofins/DiscoverX KINOMEscan scanMAX
Protocol: as §1

DYRK1B = target: T11, DYRK1B (Homo sapiens, UniProt Q9Y463)
T11 construct: purchased Eurofins/DiscoverX KINOMEscan scanMAX
Protocol: as §1

p38-delta = target: T12, p38-delta (Homo sapiens, UniProt O15264)
T12 construct: purchased Eurofins/DiscoverX KINOMEscan scanMAX
Protocol: as §1

CHEK2 = target: T13, CHEK2 (Homo sapiens, UniProt O96017)
T13 construct: purchased Eurofins/DiscoverX KINOMEscan scanMAX
Protocol: as §1

PAK7 = target: T14, PAK7 (Homo sapiens, UniProt Q9P286)
T14 construct: purchased Eurofins/DiscoverX KINOMEscan scanMAX
Protocol: as §1

PIK3CD = target: T15, PIK3CD (Homo sapiens, UniProt O00329)
T15 construct: purchased Eurofins/DiscoverX KINOMEscan scanMAX
Protocol: as §1

[3] = target: T16, ABL1(F317I)-phosphorylated (Homo sapiens, UniProt P00519, F317I)
T16 construct: purchased Eurofins/DiscoverX KINOMEscan scanMAX
Protocol: as §1

MET = target: T17, MET (Homo sapiens, UniProt P08581)
T17 construct: purchased Eurofins/DiscoverX KINOMEscan scanMAX
Protocol: as §1

ADCK4 = target: T18, ADCK4 (Homo sapiens, UniProt Q96D53)
T18 construct: purchased Eurofins/DiscoverX KINOMEscan scanMAX
Protocol: as §1

ITK = target: T19, ITK (Homo sapiens, UniProt Q08881)
T19 construct: purchased Eurofins/DiscoverX KINOMEscan scanMAX
T19 sequence (Q08881 whole entry): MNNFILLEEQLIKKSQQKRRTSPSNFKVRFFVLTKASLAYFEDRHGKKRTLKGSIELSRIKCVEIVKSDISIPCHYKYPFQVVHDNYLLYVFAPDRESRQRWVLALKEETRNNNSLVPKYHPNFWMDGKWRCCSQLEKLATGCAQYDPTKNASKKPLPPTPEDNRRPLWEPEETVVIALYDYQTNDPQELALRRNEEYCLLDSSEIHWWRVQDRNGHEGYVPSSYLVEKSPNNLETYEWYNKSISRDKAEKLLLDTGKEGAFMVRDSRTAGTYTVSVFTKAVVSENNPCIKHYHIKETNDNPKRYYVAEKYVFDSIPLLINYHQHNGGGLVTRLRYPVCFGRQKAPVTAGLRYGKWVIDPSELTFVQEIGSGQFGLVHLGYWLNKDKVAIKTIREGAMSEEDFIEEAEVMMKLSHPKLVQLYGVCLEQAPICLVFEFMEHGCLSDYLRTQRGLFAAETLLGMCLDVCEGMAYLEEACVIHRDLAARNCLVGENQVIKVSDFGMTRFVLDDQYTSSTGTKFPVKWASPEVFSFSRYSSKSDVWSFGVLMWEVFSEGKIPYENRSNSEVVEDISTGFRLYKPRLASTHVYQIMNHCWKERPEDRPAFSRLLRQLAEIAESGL
Protocol: as §1

AURKA = target: T20, AURKA (Homo sapiens, UniProt O14965)
T20 construct: purchased Eurofins/DiscoverX KINOMEscan scanMAX
T20 sequence (O14965 whole entry): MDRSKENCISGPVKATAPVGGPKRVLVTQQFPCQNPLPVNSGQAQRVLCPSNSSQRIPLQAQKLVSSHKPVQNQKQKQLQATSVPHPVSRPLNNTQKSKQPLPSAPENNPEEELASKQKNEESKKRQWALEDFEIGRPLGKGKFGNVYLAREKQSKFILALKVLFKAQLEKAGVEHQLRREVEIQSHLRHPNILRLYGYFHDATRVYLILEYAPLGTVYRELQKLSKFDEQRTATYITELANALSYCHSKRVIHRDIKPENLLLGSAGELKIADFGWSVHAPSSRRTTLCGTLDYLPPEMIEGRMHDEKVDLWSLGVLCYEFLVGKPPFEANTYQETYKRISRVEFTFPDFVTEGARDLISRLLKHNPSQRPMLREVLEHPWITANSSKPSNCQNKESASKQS
Protocol: as §1

PIK3CG = target: T21, PIK3CG (Homo sapiens, UniProt P48736)
T21 construct: purchased Eurofins/DiscoverX KINOMEscan scanMAX
Protocol: as §1

FYN = target: T22, FYN (Homo sapiens, UniProt P06241)
T22 construct: purchased Eurofins/DiscoverX KINOMEscan scanMAX
Protocol: as §1

[4] = target: T23, RSK4(Kin.Dom.1-N-terminal) (Homo sapiens, UniProt Q9UK32)
T23 construct: RSK4(Kin.Dom.1-N-terminal); purchased Eurofins/DiscoverX KINOMEscan scanMAX
Protocol: as §1

VPS34 = target: T24, VPS34 (Homo sapiens, UniProt Q8NEB9)
T24 construct: DNA tag (qPCR barcode); purchased Eurofins/DiscoverX KINOMEscan scanMAX
T24 sequence (Q8NEB9 whole entry): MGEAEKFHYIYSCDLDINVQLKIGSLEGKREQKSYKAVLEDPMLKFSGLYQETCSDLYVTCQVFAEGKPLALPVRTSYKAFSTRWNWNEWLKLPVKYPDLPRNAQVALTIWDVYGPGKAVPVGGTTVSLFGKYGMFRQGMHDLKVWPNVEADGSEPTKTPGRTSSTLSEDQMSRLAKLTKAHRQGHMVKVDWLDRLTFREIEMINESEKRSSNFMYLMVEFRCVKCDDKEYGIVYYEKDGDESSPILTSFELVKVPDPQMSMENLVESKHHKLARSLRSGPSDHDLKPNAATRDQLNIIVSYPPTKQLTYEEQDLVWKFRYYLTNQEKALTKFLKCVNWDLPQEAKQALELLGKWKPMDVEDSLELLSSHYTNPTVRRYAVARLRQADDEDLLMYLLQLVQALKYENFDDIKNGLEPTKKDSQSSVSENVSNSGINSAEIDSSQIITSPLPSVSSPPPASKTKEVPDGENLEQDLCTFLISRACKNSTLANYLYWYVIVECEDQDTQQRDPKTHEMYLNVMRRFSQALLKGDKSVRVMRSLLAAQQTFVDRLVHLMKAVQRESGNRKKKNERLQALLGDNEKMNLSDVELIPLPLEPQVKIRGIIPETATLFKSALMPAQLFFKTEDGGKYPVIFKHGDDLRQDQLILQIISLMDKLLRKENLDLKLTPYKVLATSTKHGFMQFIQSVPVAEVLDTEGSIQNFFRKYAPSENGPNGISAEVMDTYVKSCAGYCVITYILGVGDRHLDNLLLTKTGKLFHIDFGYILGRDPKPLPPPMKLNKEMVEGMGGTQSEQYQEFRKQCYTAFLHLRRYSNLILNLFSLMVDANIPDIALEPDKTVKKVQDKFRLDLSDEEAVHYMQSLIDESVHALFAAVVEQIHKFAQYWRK
Protocol: as §1

MAP3K4 = target: T25, MAP3K4 (Homo sapiens, UniProt Q9Y6R4)
T25 construct: purchased Eurofins/DiscoverX KINOMEscan scanMAX
Protocol: as §1

MRCKA = target: T26, MRCKA (Homo sapiens, UniProt Q5VT25)
T26 construct: purchased Eurofins/DiscoverX KINOMEscan scanMAX
Protocol: as §1

FAK = target: T27, FAK (Homo sapiens, UniProt Q05397)
T27 construct: purchased Eurofins/DiscoverX KINOMEscan scanMAX
Protocol: as §1

FLT3(K663Q) = target: T28, FLT3(K663Q) (Homo sapiens, UniProt P36888, K663Q)
T28 construct: purchased Eurofins/DiscoverX KINOMEscan scanMAX
Protocol: as §1

NEK4 = target: T29, NEK4 (Homo sapiens, UniProt P51957)
T29 construct: purchased Eurofins/DiscoverX KINOMEscan scanMAX
Protocol: as §1

EPHB4 = target: T30, EPHB4 (Homo sapiens, UniProt P54760)
T30 construct: purchased Eurofins/DiscoverX KINOMEscan scanMAX
Protocol: as §1

PRKCD = target: T31, PRKCD (Homo sapiens, UniProt Q05655)
T31 construct: purchased Eurofins/DiscoverX KINOMEscan scanMAX
Protocol: as §1

LRRK2(G2019S) = target: T32, LRRK2(G2019S) (Homo sapiens, UniProt Q5S007, G2019S)
T32 construct: purchased Eurofins/DiscoverX KINOMEscan scanMAX
Protocol: as §1

SLK = target: T33, SLK (Homo sapiens, UniProt Q9H2G2)
T33 construct: purchased Eurofins/DiscoverX KINOMEscan scanMAX
Protocol: as §1

[5] = target: T34, RPS6KA4(Kin.Dom.1-N-terminal) (Homo sapiens, UniProt O75676)
T34 construct: RPS6KA4(Kin.Dom.1-N-terminal); purchased Eurofins/DiscoverX KINOMEscan scanMAX
T34 sequence (O75676 33-371 limits assumed): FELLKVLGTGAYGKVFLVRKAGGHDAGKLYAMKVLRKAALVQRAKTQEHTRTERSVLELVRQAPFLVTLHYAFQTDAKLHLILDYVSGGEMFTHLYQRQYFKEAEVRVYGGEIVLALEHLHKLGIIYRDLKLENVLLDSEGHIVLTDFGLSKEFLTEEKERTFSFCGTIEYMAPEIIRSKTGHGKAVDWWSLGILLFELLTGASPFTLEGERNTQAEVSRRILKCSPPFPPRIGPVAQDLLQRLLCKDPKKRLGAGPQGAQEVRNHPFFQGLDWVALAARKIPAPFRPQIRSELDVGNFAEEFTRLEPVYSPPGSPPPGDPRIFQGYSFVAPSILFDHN
Protocol: as §1

YANK3 = target: T35, YANK3 (Homo sapiens, UniProt Q86UX6)
T35 construct: purchased Eurofins/DiscoverX (KINOMEscan scanMAX service)
T35 sequence (Q86UX6 whole entry): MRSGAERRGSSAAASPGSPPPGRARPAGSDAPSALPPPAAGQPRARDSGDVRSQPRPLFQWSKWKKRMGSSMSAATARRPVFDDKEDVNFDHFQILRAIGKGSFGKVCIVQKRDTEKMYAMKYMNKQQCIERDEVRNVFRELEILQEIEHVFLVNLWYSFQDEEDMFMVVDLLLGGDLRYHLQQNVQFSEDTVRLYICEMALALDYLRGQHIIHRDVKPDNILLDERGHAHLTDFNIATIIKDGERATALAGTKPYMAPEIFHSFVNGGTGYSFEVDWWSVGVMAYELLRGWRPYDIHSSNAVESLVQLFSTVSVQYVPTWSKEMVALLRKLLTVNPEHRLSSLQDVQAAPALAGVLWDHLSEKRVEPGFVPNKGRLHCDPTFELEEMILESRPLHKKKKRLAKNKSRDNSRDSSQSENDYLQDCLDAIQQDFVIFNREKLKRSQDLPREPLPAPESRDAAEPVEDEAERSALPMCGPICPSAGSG
Protocol: as §1

GSK3B = target: T36, GSK3B (Homo sapiens, UniProt P49841)
T36 construct: purchased Eurofins/DiscoverX KINOMEscan scanMAX
T36 sequence (P49841 whole entry): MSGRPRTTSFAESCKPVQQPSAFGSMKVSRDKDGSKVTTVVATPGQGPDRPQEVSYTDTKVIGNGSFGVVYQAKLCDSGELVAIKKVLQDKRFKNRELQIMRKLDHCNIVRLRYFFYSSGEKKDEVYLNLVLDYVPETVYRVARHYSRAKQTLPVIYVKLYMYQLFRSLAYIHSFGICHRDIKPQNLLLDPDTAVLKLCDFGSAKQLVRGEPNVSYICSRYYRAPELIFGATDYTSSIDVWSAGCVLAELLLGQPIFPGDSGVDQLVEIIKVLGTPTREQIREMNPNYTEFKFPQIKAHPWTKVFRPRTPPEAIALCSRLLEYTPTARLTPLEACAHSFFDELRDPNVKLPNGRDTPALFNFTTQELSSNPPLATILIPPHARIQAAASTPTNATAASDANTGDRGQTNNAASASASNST
Protocol: as §1

PIK3CA(E545A) = target: T37, PIK3CA(E545A) (Homo sapiens, UniProt P42336, E545A)
T37 construct: purchased Eurofins/DiscoverX KINOMEscan scanMAX
Protocol: as §1

WNK2 = target: T38, WNK2 (Homo sapiens, UniProt Q9Y3S1)
T38 construct: DNA tag (qPCR barcode); purchased Eurofins/DiscoverX KINOMEscan scanMAX
Protocol: as §1

[6] = target: T39, RPS6KA5(Kin.Dom.1-N-terminal) (Homo sapiens, UniProt O75582)
T39 construct: RPS6KA5(Kin.Dom.1-N-terminal); purchased Eurofins/DiscoverX KINOMEscan scanMAX
Protocol: as §1

T1 sequence (P29320 21-983): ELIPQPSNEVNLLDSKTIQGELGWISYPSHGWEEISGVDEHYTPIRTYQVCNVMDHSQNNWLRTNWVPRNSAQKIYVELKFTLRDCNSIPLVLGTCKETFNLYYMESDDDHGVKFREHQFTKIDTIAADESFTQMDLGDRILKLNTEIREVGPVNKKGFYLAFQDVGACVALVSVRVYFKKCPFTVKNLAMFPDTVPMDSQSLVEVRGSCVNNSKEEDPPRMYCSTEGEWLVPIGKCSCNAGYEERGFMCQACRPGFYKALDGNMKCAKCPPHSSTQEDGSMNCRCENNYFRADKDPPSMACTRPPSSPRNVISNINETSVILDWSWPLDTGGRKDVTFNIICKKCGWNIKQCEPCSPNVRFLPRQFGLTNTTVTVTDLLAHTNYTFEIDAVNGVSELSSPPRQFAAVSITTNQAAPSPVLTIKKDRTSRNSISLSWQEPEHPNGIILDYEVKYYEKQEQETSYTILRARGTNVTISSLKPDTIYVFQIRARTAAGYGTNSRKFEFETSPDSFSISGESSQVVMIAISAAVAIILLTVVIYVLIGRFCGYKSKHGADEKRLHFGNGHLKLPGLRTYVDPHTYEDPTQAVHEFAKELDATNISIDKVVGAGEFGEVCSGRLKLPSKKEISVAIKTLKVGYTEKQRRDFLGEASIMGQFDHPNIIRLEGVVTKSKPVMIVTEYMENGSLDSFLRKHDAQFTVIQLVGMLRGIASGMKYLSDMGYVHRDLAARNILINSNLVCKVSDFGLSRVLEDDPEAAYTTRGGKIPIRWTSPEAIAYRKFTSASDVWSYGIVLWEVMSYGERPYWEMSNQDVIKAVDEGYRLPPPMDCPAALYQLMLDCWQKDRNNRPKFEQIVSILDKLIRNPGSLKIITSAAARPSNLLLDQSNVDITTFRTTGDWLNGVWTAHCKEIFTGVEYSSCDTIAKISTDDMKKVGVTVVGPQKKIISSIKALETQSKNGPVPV

CN1CCN(C2CCC(n3cc(-c4ccc(Oc5ccccc5)cc4)c4c(N)ncnc43)CC2)CC1 (stereo not drawn) [A-419259]
% Control (EPHA3): 95% | % Control (SRPK1): 100% | % Control [1]: 100% | % Control (DYRK1A): 99% | % Control (TRKC): 45% | % Control (MINK): 30% | % Control (FER): 100% | % Control [2]: 83% | % Control (IGF1R): 80% | % Control (RIOK3): 64% | % Control (DYRK1B): 21% | % Control (p38-delta): 99% | % Control (CHEK2): 40% | % Control (PAK7): 89% | % Control (PIK3CD): 100% | % Control [3]: 2.4% | % Control (MET): 58% | % Control (ADCK4): 100% | % Control (ITK): 14% | % Control (AURKA): 36% | % Control (PIK3CG): 61% | % Control (FYN): 5.1% | % Control [4]: 68% | % Control (VPS34): 63% | % Control (MAP3K4): 92% | % Control (MRCKA): 98% | % Control (FAK): 72% | % Control (FLT3(K663Q)): 5.6% | % Control (NEK4): 100% | % Control (EPHB4): 100% | % Control (PRKCD): 89% | % Control (LRRK2(G2019S)): 100% | % Control (SLK): 100% | % Control [5]: 66% | % Control (YANK3): 100% | % Control (GSK3B): 95% | % Control (PIK3CA(E545A)): 100% | % Control (WNK2): 67% | % Control [6]: 77%
